Laboratory results from publication PMC2112634 (The Journal of Cell Biology, 1983).
Like-named read-outs stand apart in the source and are kept apart here. Values belong to the molecule of their own block, whether it stands above or below them.

Columns and labels:
[1] = target: T1, CCK-binding sites on rat pancreatic plasma membranes (Rattus norvegicus, UniProt P30551); test: Competitive inhibition of 125I-CCK-33 binding to pancreatic plasma membranes
T1 sequence (P30551 1-444): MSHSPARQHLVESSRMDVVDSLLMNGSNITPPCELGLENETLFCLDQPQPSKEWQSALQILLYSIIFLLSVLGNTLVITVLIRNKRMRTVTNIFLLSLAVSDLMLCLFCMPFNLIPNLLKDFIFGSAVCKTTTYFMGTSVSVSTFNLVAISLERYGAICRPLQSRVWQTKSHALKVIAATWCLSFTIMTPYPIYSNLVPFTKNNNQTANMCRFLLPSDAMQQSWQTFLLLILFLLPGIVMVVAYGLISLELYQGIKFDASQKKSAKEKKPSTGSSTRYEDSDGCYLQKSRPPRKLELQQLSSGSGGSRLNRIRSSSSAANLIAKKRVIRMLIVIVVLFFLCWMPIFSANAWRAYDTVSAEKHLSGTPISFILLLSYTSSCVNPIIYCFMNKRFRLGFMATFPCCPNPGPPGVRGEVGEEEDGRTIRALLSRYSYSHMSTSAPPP

[2] = 125I-labeled Bolton-Hunter reagent; cited from earlier work
[3] = system: rabbit anti-CCK IgG (antiserum No. L-48); test: Affinity labeling of anti-CCK antibodies; format: binding; conditions: 0.07 nM 125I-CCK-33, 24 h at 4C, 1 mM DSS; Fig. 1 lane a
[4] = system: CCK-binding sites on rat pancreatic acinar cells; format: cell-based
[5] = system: CCK-binding sites on rat pancreatic acinar cells; test: Light microscopic autoradiography of pancreatic acini; format: cell-based; conditions: ~0.1 nM 125I-CCK-33, 15 min at 37C; Fig. 2a; similar results at 2 min
[6] = target: T2, CCK-binding site (Mr 85,000 protein) of rat pancreatic plasma membranes (Rattus norvegicus, UniProt P30551); test: Affinity labeling; conditions: micromolar concentrations of competitor; unpublished results
T2 sequence (P30551 1-444): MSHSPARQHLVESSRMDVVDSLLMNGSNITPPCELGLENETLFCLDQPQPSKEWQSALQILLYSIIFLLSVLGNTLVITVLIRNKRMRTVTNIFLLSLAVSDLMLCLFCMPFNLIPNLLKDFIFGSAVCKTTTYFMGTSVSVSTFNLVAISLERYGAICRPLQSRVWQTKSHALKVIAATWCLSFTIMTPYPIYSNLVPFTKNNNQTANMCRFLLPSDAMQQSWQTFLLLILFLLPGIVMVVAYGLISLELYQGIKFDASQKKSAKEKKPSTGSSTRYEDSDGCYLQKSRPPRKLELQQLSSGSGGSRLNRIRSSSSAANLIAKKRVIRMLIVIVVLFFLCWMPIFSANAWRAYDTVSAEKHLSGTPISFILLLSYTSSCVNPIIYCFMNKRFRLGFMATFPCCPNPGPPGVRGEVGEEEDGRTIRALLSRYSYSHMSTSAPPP

[7] = system: CCK-binding sites of rat pancreatic plasma membranes; conditions: ultraviolet irradiation cross-linking; cited from earlier work
[8] = system: CCK receptor in rat pancreatic acini; conditions: rat pancreatic acinar cell; cited from earlier work
[9] = system: CCK receptors of mouse pancreatic acini; conditions: electron microscopic autoradiography; cited from earlier work
[10] = 0.1 nM 125I-CCK-33, 2 or 15 min, 37C, % of total grains
[11] = 2 min, 37C, 0.1 nM 125I-CCK-33, mean ± SEM, 17 micrographs, Table I
[12] = 15 min, 37C, 0.1 nM 125I-CCK-33, mean ± SEM, 18 micrographs, Table I

- peptide released from binding sites during cross-linking and subsequent washing [1]: < 5%
Molecule: 125I-CCK-33: CCK-33 acylated with 125I-labeled Bolton-Hunter reagent (KAPSGRVSMIKNLQSLDPSHRISDRDYMGWMDF; Cholecystokinin-33 125I-Bolton-Hunter labeled; UniProt P01356 70-102, looked up)
- secretagogue activity after Bolton-Hunter acylation [2]: retention of secretagogue activity
- labeling of heavy and light chains of anti-CCK IgG [3]: labeling of the heavy and light chains of anti-CCK IgG was obtained
- grains over cytoplasm (summary) [4, 10]: ~ 30%
- grains over embedding medium (summary) [4, 10]: 5- 8%
- grains over nucleus (summary) [4, 10]: 1-2%
- grains within 1 HD of the lateral and basal plasmalemma [4, 10]: approximately 60%
- Basal PM grain density [4, 11]: 2.57 0.08 grains/µm2
- Cytoplasm, % total grains [4, 11]: 34.0 ± 1.3 % total grains
- Lateral PM grain density [4, 11]: 1.10 0.05 grains/µm2
- Lateral PM, % total grains [4, 11]: 12.1 ± 0.4 % total grains
- distribution of grains at 4C ([4]; 2 min or 15 min at 4C, data not shown, compared with 37C): Qualitatively similar results
- relative grain density over cytoplasm or nucleus compared to embedding medium ([4]; 15 min, 37C): no statistically significant increase
- Apical PM grain density [4, 12]: 0.11 ± 0.02 grains/µm2
- Apical PM, % total grains [4, 12]: 0.1 % total grains
- Basal PM grain density [4, 12]: 2.46 0.11 grains/µm2
- Basal PM, % total grains [4, 12]: 34.8 0.6 % total grains
- Cytoplasm, % total grains [4, 12]: 30.0 ± 0.8 % total grains
- Embedding medium, % total grains [4, 12]: 8.1 0.6 % total grains
- Lateral PM grain density [4, 12]: 2.32 0.07 grains/µm2
- Lateral PM, % total grains [4, 12]: 25.5 ± 0.6 % total grains
- specific binding sites on centroacinar or ductular cells ([4]; autoradiography, 125I-CCK-33): no apparent specific
- relative grain density over cytoplasm and nucleus (summary) ([4]; either time point, 37C): never exceeded unity
- distribution of autoradiographic grains (light microscopy) [5]: primarily delineated the basal and lateral boundaries of the acinar cells

- effect on labeling of membrane proteins by 125I-CCK-33 [6]: unaffected
Molecule: insulin: polypeptide hormone tested at micromolar concentration as specificity control

- effect on labeling of membrane proteins by 125I-CCK-33 [6]: unaffected
Molecule: secretin: peptide tested at micromolar concentration as specificity control

B1: cholecystokinin (peptide, UniProt P06307 21-115, looked up)
Cholecystokinin: QPVPPADPAGSGLQRAEEAPRRQLRVSQRTDGESRAHLGALLARYIQQARKAPSGRMSIVKNLQNLDPSHRISDRDYMGWMDFGRRSAEEYEYPS
modifications: Cholecystokinin
- Mr of specifically labeled polypeptide [7]: 76,000
- high affinity binding sites per cell [8]: approximately 650 binding sites per cell
- low affinity binding sites per cell [8]: ~100,000 binding sites per cell
- localization of CCK receptors [9]: localized to the basolateral plasmalemma of mouse pancreatic acini
